This is an account of results in patent US20070027033A1, “Anti-germination method of tubers or bulbs using eugenol and/or isoeugenol” (priority 2005, published 2007).

This assay concerns germination and nascent sprouts of potatoes. Briefly: Post-storage application to washed potatoes, in line or by immersion, compared with CIPC and other essential oils. Format: in vivo, potato. The conditions noted are these: emulsifiable liquid solution applied in line to washed potatoes or by immersion in dilute aqueous solution, after storage, at ambient temperature.

As to `C=CCc1ccc(O)c(OC)c1` [eugenol], the “prevention of germination and burning of nascent sprouts” value was “more effectively than the CIPC-based formulation or other essential oils”.
